System: MDRAB
Test: MIC determination, microdilution broth method
Type: cell-based, Acinetobacter baumannii
[1] = single use, 20 MDRABs, EA=10% ethanol extract
[2] = single use, 20 MDRABs, EA=water extract
[3] = single use, 20 MDRABs, section of the 60% ethanol extract
[4] = single use, 20 MDRABs, section of the 95% ethanol extract

Experimental: Determination methods of a Minimal Inhibitory Concentration (MIC) and a Minimum Bactericidal Concentration (MBC) of a test product: the MIC and the MBC of the Pithecellobium clypearia Benth water or ethanol extract to the MDRAB are determined by a microdilution broth method. And it is operated by referring to the microdilution broth method recommended by National Committee for Clinical Laboratory Standards (NCCLS).

Polymycin B [POLB]
1 µg/mL: MIC (strain A9, EA=60% ethanol extract) | MIC (strain A9, EA=95% ethanol extract) | MIC (strain A9, single use, EA=10% ethanol extract) | MIC (strain A9, single use, EA=water extract)
32 µg/mL: MIC (strain A10, EA=60% ethanol extract) | MIC (strain A10, EA=95% ethanol extract) | MIC (strain A10, single use, EA=10% ethanol extract) | MIC (strain A10, single use, EA=water extract)
2 µg/mL: MIC (strain A2, EA=60% ethanol extract) | MIC (strain A2, EA=95% ethanol extract) | MIC (strain A2, single use, EA=10% ethanol extract) | MIC (strain A2, single use, EA=water extract) | MIC (strain A3, EA=60% ethanol extract) | MIC (strain A3, EA=95% ethanol extract) | MIC (strain A3, single use, EA=10% ethanol extract) | MIC (strain A3, single use, EA=water extract) | MIC (strain A4, EA=60% ethanol extract) | MIC (strain A4, EA=95% ethanol extract) | MIC (strain A4, single use, EA=10% ethanol extract) | MIC (strain A4, single use, EA=water extract) | MIC (strain A12, EA=60% ethanol extract) | MIC (strain A12, EA=95% ethanol extract) | MIC (strain A12, single use, EA=10% ethanol extract) | MIC (strain A12, single use, EA=water extract) | MIC (strain A13, EA=60% ethanol extract) | MIC (strain A13, EA=95% ethanol extract) | MIC (strain A13, single use, EA=10% ethanol extract) | MIC (strain A13, single use, EA=water extract) | MIC (strain A15, EA=60% ethanol extract) | MIC (strain A15, EA=95% ethanol extract) | MIC (strain A15, single use, EA=10% ethanol extract) | MIC (strain A15, single use, EA=water extract) | MIC (strain A20, EA=60% ethanol extract) | MIC (strain A20, EA=95% ethanol extract) | MIC (strain A20, single use, EA=10% ethanol extract) | MIC (strain A20, single use, EA=water extract)
8 µg/mL: MIC (strain A1, EA=60% ethanol extract) | MIC (strain A1, EA=95% ethanol extract) | MIC (strain A1, single use, EA=10% ethanol extract) | MIC (strain A1, single use, EA=water extract) | MIC (strain A6, EA=60% ethanol extract) | MIC (strain A6, EA=95% ethanol extract) | MIC (strain A6, single use, EA=10% ethanol extract) | MIC (strain A6, single use, EA=water extract) | MIC (strain A8, EA=60% ethanol extract) | MIC (strain A8, EA=95% ethanol extract) | MIC (strain A8, single use, EA=10% ethanol extract) | MIC (strain A8, single use, EA=water extract)
4 µg/mL: MIC50 (MDRABs, EA=60% ethanol extract) | MIC50 (MDRABs, EA=95% ethanol extract) | MIC50 [1] | MIC50 [2] | MIC50 [3] | MIC50 [4] | MIC (strain A5, EA=60% ethanol extract) | MIC (strain A5, EA=95% ethanol extract) | MIC (strain A5, single use, EA=10% ethanol extract) | MIC (strain A5, single use, EA=water extract) | MIC (strain A7, EA=60% ethanol extract) | MIC (strain A7, EA=95% ethanol extract) | MIC (strain A7, single use, EA=10% ethanol extract) | MIC (strain A7, single use, EA=water extract) | MIC (strain A16, EA=60% ethanol extract) | MIC (strain A16, EA=95% ethanol extract) | MIC (strain A16, single use, EA=10% ethanol extract) | MIC (strain A16, single use, EA=water extract) | MIC (strain A18, EA=60% ethanol extract) | MIC (strain A18, EA=95% ethanol extract) | MIC (strain A18, single use, EA=10% ethanol extract) | MIC (strain A18, single use, EA=water extract) | MIC (strain A19, EA=60% ethanol extract) | MIC (strain A19, EA=95% ethanol extract) | MIC (strain A19, single use, EA=10% ethanol extract) | MIC (strain A19, single use, EA=water extract)
0.5 to 64 µg/mL: MIC Range (MDRABs, EA=60% ethanol extract) | MIC Range (MDRABs, EA=95% ethanol extract) | MIC Range [1] | MIC Range [2]
0.5 µg/mL: MIC (strain A14, EA=60% ethanol extract) | MIC (strain A14, EA=95% ethanol extract) | MIC (strain A14, single use, EA=10% ethanol extract) | MIC (strain A14, single use, EA=water extract)
16 µg/mL: MIC90 (MDRABs, EA=60% ethanol extract) | MIC90 (MDRABs, EA=95% ethanol extract) | MIC90 [1] | MIC90 [2] | MIC90 [3] | MIC90 [4] | MIC (strain A11, EA=60% ethanol extract) | MIC (strain A11, EA=95% ethanol extract) | MIC (strain A11, single use, EA=10% ethanol extract) | MIC (strain A11, single use, EA=water extract)
64 µg/mL: MIC (strain A17, EA=60% ethanol extract) | MIC (strain A17, EA=95% ethanol extract) | MIC (strain A17, single use, EA=10% ethanol extract) | MIC (strain A17, single use, EA=water extract)

Source: US11793849B2, “Method of Chinese herbal medicine extract used for treating multiple diseases caused by drug resistant bacteria infection” (priority 2016, dated 2023)
